Reference: patent EP2650284A1, “Heterocyclic derivatives as metabotropic glutamate receptor modulators” (Merz Pharma GmbH & Co. KGaA, priority 2012, dated 2013)
Like-named read-outs stand apart in the source and are kept apart here.

Legend:
[1] = target: T1, human metabotropic glutamate receptor mGluR5 (Homo sapiens, UniProt P41594); assay: Cytosolic calcium studies with stably transfected cells (h5CHO), functional assay of mGluR5 receptors; assay type: cell-based; details: for EC50: positive modulators, h5CHO cells preincubated with modulator, stimulated by an EC20 concentration of L-glutamate, read-out: hEC50
T1 construct: expressed in transfected cells; host or cells: CHO-K1 (h5CHO), IPTG-inducible
Experimental: Chinese hamster ovary cells (CHO-K1 cells), stably transfected for inducible expression of a human metabotropic glutamate receptor mGluR5 to form a cell line called h5CHO, are seeded into black clear bottom 96 well plates at a density of 35.000 cells per well. The standard growth medium used (Dulbecco's modified Eagle Medium, DMEM plus L-proline) contains the appropriate inducer isopropyl-β-D-thiogalactopyranosid (IPTG) to achieve optimal receptor expression. One day after seeding the growth medium is exchanged for reconstituted Ca-Kit (Molecular Devices, USA) and incubated for one hour. Ca-Kit is reconstituted in an assay buffer containing 20 mM HEPES pH 7.4, glutamic-pyruvate transaminase, pyridoxal phosphate and sodium pyruvate in Hank's balanced salt solution (HBBS). Agonistic compounds to the receptor elicit increases in cytosolic calcium which can be measured as increases in fluorescence signals by use of a fluorescence imaging plate reader (Molecular Devices). To analyze their potency to negatively modulate the Ca-response test compounds, dissolved in a final DMSO concentration of 0.5%, are added on-line 5 minutes before the agonist to the receptor (L-quisqualic acid at a concentration giving ~80% of the maximal signal). EC50 values for positive allosteric modulators were determined by stimulating the cells which have been preincubated the modulators by an EC20 concentration of L-glutamate.
(§1) The fluorescence signal increase after addition of agonist reflects the increase of cytosolic calcium. Inconsistencies in the amount of cells per well are normalised by using the spatial uniformity correction of the FLIPR operating software Screenworks. The mean of replicated temporal data (n=3-5) is calculated and used for graphical representation. For the evaluation of the pharmacology, the calcium changes in response to different concentrations of agonist or antagonist are determined using a maximum minus minimum (MaxMin) calculation.
(§2) All responses (RFU-values) are determined as percentage of control (= maximum response). EC50 and IC50 are calculated according the logistic equation using XLFit (IDBS, UK) or Prism 4.0 (GraphPad Software, USA). The compounds of the present invention have a potency (EC50 or IC50) within a range of about 0.5 nM to about 100 µM. The left shifts for positive or slient allosteric modulators (PAMs or SAMs, respectively) are determined by comparison of EC50 values from agonist dose response curves run in the presence of 10 µM modulator or vehicle (Vanejevs et al., J. Med. Chem., 2008, 51, 634-647).

mGluR5 receptors = target: T2, mGluR5 receptors (Rattus norvegicus, UniProt P31424); assay: Cytosolic calcium studies with astrocytes (FLIPR), functional assay of mGluR5 receptors; assay type: cell-based
T2 construct: Primary astrocyte cultures are prepared from cortices of newborn rats; endogenous in cells; host or cells: primary cortical astrocytes from Sprague-Dawley rat pups (2-4 d old)
Experimental: Primary astrocyte cultures are prepared from cortices of newborn rats as described by Booher and Sensenbrenner (1972, Neurobiology 2(3):97-105). Briefly, Sprague-Dawley rat pups (2 - 4 d old) are decapitated and neocortices are dissected, disintegrated with a nylon filter (pore size 80 µm) and carefully triturated. The cell suspension is plated on poly-D-lysine pre-coated flasks (Costar, Netherlands) and cultivated in Dulbecco's Modified Eagle's Medium (DMEM, Invitrogen, Germany) supplemented with 10% foetal calf serum (FCS, Sigma, Germany), 4 mM glutamine and 50 µg/ml gentamycin (both Biochrom, Germany) at 37°C in a humidified atmosphere of 5% CO2/ 95% air for 7 days with exchanging the medium at day 2 and 6.
After 7 days in vitro (DIV), cells are shaken overnight at 250 rpm to remove oligodendrocytes and microglia. The next day, astrocytes are rinsed twice with CMF-PBS (calcium- and magnesium-free phosphate buffered saline, Biochrom, Germany), trypsinized and subplated on poly-D-lysine pre-coated 96-well plates (Greiner, Germany) at a density of 40,000 cells/well. 24 h after establishing the secondary culture the astrocytes are rinsed with PBS^++ (phosphate buffered saline, Biochrom, Germany) and fed with astrocyte-defined medium (ADM) consisting of DMEM containing 1x G5-supplement (Invitrogen, Germany), 0.5 µg/ml heparan sulfate, and 1.5 µg/ml fibronectin (both Sigma, Germany) (Miller et al., (1993) Brain Res. 618(1):175-8). 3 days later the medium is exchanged and the cells incubated for another 2-3 days, so that at the time of experiments astrocytes are 14-15 DIV.
The increase of cytosolic calcium after stimulation with the mGluR5 agonist L-quisqualate is measured using a fluorometric imaging plate reader (FLIPR) and the Ca-Kit (both Molecular Devices). Prior to addition of agonist or antagonist the medium is aspirated and cells are loaded for 2 h at RT with 150 µl of loading buffer consisting of Ca-sensitive dye reconstituted in sodium chloride (123 mM), potassium chloride (5.4 mM), magnesium chloride (0.8 mM), calcium chloride (1.8 mM), D-glucose (15 mM), and HEPES (20 mM), pH 7.3. Subsequently, plates are transferred to FLIPR to detect calcium increase with the addition of L-quisqualate (100 nM) measured as relative fluorescence units (RFU). If antagonists are tested, these compounds are pre-incubated for 10 minutes at RT before addition of the respective agonist.
For positive modulators, concentration-response curves for quisqualate are performed in the presence and absence of 10 µM modulator to determine the extent of potentiation / agonist potency increase. Thereafter, concentration-response curves for the positive modulator are performed in the presence of a fixed concentration of quisqualate showing the biggest window for potentiation (normally 10-30 nM).
as §1, §2

[2] = Table A1, left shift of agonist EC50, dose response curves in the presence of 10 µM modulator or vehicle, h5CHO cells
[3] = Table A1, left shift of quisqualate EC50 in the presence and absence of 10 µM modulator
[4] = Table A1, positive modulators, fixed concentration of quisqualate (normally 10-30 nM), read-out: rEC50
[5] = Table A3 (SAMs / very weak PAMs), agonist EC50 shift with 10 µM modulator or vehicle, h5CHO cells
[6] = Table A3 (SAMs / very weak PAMs), quisqualate EC50 shift with 10 µM modulator
[7] = Table A3, given in brackets where Ki is n.d., read-out: r EC50

T1 sequence (P41594 21-1212): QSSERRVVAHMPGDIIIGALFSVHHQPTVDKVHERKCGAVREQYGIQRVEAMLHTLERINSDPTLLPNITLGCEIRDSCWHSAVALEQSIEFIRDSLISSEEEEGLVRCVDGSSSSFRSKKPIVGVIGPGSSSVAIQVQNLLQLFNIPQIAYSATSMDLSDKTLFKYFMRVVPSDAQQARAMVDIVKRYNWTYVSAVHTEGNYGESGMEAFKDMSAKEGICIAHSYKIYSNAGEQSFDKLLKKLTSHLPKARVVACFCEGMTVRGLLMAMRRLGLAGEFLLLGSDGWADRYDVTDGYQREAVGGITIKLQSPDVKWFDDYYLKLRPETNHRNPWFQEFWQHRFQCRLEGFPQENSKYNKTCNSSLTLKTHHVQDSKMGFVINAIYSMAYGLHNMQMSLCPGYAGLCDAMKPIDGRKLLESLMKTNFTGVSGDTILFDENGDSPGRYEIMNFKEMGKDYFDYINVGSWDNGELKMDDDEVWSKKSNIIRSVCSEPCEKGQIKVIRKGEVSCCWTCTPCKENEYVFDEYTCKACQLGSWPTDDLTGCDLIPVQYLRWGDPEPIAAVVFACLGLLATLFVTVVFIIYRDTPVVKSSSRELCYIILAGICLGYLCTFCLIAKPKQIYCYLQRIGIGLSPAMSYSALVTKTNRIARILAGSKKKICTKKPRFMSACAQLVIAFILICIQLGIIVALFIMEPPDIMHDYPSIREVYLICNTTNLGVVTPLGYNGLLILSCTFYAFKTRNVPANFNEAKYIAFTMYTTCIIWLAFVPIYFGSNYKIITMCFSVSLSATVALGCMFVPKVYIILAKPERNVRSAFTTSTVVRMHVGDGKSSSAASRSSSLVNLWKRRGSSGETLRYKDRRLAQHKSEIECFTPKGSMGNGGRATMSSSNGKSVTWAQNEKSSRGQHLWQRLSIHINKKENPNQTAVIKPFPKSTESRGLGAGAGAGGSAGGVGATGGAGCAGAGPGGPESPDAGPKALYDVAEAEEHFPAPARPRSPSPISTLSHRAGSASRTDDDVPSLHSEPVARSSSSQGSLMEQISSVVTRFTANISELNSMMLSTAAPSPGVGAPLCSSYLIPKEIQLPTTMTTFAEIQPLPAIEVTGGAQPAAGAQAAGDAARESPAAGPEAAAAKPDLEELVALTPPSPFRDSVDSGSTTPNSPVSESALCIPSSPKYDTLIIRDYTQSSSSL
T2 sequence (P31424 21-1203): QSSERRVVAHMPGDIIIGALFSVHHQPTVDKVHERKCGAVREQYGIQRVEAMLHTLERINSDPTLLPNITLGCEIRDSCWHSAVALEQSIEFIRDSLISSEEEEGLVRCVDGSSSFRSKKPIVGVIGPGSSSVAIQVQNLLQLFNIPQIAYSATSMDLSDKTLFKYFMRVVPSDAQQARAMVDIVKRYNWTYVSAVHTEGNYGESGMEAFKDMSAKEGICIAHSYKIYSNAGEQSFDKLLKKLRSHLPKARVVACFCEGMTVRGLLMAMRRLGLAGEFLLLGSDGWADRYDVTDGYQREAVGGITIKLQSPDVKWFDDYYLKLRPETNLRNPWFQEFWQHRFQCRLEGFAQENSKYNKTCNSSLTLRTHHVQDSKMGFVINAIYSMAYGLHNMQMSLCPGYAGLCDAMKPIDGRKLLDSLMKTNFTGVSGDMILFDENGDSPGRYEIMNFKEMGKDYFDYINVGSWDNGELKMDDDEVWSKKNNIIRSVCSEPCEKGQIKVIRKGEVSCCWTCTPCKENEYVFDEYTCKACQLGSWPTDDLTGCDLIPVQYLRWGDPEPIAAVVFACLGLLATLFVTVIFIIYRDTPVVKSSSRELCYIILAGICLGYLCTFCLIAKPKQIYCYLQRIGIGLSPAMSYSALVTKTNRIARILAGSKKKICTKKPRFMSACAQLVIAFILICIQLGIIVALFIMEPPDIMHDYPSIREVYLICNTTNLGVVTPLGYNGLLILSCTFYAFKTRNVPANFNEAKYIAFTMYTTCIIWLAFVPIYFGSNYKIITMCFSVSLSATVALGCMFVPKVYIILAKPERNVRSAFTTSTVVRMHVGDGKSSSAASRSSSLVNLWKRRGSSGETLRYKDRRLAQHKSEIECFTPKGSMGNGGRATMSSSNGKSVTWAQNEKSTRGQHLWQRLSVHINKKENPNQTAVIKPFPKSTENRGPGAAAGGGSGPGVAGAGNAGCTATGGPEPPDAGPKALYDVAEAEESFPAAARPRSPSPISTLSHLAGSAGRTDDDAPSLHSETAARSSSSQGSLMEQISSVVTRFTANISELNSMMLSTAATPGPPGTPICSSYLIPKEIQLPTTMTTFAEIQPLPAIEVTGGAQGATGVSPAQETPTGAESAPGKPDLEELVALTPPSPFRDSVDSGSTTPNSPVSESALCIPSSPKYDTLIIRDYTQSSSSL

SMILES	h left shift [1, 2]	EC50 ([1]; Table A1)	r left shift (mGluR5 receptors; [3])	EC50 (mGluR5 receptors; [4])	h left shift [1, 5]	r left shift (mGluR5 receptors; [6])	EC50 (mGluR5 receptors; [7])	IC50 ([1]; Table A2, negative modulation, compounds added 5 minutes before L-quisqualic acid (~80% of the maximal signal), h5CHO cells, read-out: hIC50)	IC50 (mGluR5 receptors; Table A2, pre-incubated 10 minutes before L-quisqualate (100 nM), read-out: rIC50)
COC(=O)N1CC2CCc3ncc(C#Cc4ccccc4)cc3C2C1 (stereo not drawn) [Example 30, Methyl 8-(phenylethynyl)-3,3a,4,5-tetrahydro-1H-pyrrolo[3,4-f]quinoline-2(9bH)-carboxylate]	2.5-fold	345 nM	3.0-fold	256 nM					
O=C1OC2(CCCc3ncc(C#Cc4cccc(F)c4)cc32)CN1C1CC1 (racemic) [Example 76, (rac)-3-Cyclopropyl-3'-((3-fluorophenyl)ethynyl)-7',8'-dihydro-6'H-spiro[oxazolidine-5,5'-quinolin]-2-one]					1.6-fold	1.4-fold	50.5 nM		
O=C1OC2(CCCc3ncc(C#Cc4ccccc4)cc32)CN1C1CC1 (racemic) [Example 74, (rac)-3-Cyclopropyl-3'-(phenylethynyl)-7',8'-dihydro-6'H-spiro[oxazolidine-5,5'-quinolin]-2-one]	1.6-fold		1.5-fold	10.1 nM					
CN1CCO[C@@H]2c3cc(C#Cc4ccccc4)cnc3CC[C@@H]21 (racemic) [Example 13, (rac)-cis-4-Methyl-9-(phenylethynyl)-3,4,4a,5,6,10b-hexahydro-2H-[1,4]oxazino[2,3-f]quinoline]	1.7-fold	425 nM	1.7-fold						
COC(=O)N1CC2Cc3cc(C#Cc4ccccc4)cnc3C2C1 (racemic) [Example 79, (rac)-Methyl 3-(phenylethynyl)-5a,6,8,8a-tetrahydropyrrolo[3',4':4,5]cyclopenta[1,2-b]pyridine-7(5H)-carboxylate]	2.6-fold	64.7 nM	4.1-fold	167 nM					
CCCN1CCO[C@@H]2c3cc(C#Cc4cccc(F)c4)cnc3CC[C@@H]21 (racemic) [Example 19, (rac)-cis-9-((3-Fluorophenyl)ethynyl)-4-propyl-3,4,4a,5,6,10b-hexahydro-2H-[1,4]oxazino[2,3-f]quinoline]	1.9-fold	188 nM	2.6-fold	323 nM					
FC(F)(F)CCN1CCO[C@@H]2c3cc(C#Cc4ccccc4)cnc3CC[C@@H]21 (racemic) [Example 25, (rac)-cis-9-(Phenylethynyl)-4-(3,3,3-trifluoropropyl)-3,4,4a,5,6,10b-hexahydro-2H-[1,4]oxazino[2,3-f]quinoline]	2.0-fold	36.9 nM	3.6-fold	136 nM					
COC(=O)N1C2CCC1c1cc(C#Cc3ccccc3)cnc1C2 (racemic) [Example 58, (rac)-Methyl 3-(phenylethynyl)-6,7,8,9-tetrahydro-5H-5,8-epiminocyclohepta[b]pyridine-10-carboxylate]	2.3-fold	201 nM	3.9-fold	113 nM					
CC(C)CN1CCO[C@@H]2c3cc(C#Cc4ccccc4)cnc3CC[C@@H]21 (racemic) [Example 23, (rac)-cis-4-Isobutyl-9-(phenylethynyl)-3,4,4a,5,6,10b-hexahydro-2H-[1,4]oxazino[2,3-f]quinoline]	5.3-fold	4 nM	11.7-fold	132 nM					
CCCN1CCO[C@@H]2c3cc(C#Cc4ccccc4F)cnc3CC[C@@H]21 (racemic) [Example 18, (rac)-cis-9-((2-Fluorophenyl)ethynyl)-4-propyl-3,4,4a,5,6,10b-hexahydro-2H-[1,4]oxazino[2,3-f]quinoline]	2.6-fold	247 nM	2.6-fold	613 nM					
COC(=O)N1CC[C@H]2c3ncc(C#Cc4cccc(F)c4)cc3CC[C@H]21 [Example 72, (6aR,9aR)-Methyl 3-((3-fluorophenyl)ethynyl)-6,6a,9,9a-tetrahydro-5H-pyrrolo[2,3-h]quinoline-7(8H)-carboxylate]	1.7-fold		1.3-fold	27.3 nM					

Results, then the compound that gave them:

h left shift [1, 2]	EC50 ([1]; Table A1)	r left shift (mGluR5 receptors; [3])	EC50 (mGluR5 receptors; [4])	h left shift [1, 5]	r left shift (mGluR5 receptors; [6])	EC50 (mGluR5 receptors; [7])	IC50 ([1]; Table A2, negative modulation, compounds added 5 minutes before L-quisqualic acid (~80% of the maximal signal), h5CHO cells, read-out: hIC50)	IC50 (mGluR5 receptors; Table A2, pre-incubated 10 minutes before L-quisqualate (100 nM), read-out: rIC50)	SMILES
2.4-fold	917 nM	2.7-fold	4040 nM						CC1(C(=O)N2CCc3ncc(C#Cc4ccccc4)cc3C2)COC1 [Example 36, (3-Methyloxetan-3-yl)(3-(phenylethynyl)-7,8-dihydro-1,6-naphthyridin-6(5H)-yl)methanone]
				1.5-fold	1.8-fold	35.5 nM			COC(=O)N1CC[C@H]2CCc3cc(C#Cc4ccccc4)cnc3[C@H]21 (racemic) [Example 80, (rac)-cis-Methyl 7-(phenylethynyl)-2,3,3a,4,5,9b-hexahydro-1H-pyrrolo[3,2-h]quinoline-1-carboxylate]
2.0-fold	240 nM	1.8-fold	83.1 nM						CN(C)S(=O)(=O)N1CCc2ncc(C#Cc3ccccc3)cc2C1 [Example 52, N,N-Dimethyl-3-(phenylethynyl)-7,8-dihydro-1,6-naphthyridine-6(5H)-sulfonamide]
2.3-fold	171 nM	2.8-fold	67.9 nM						CC(C)(C)C(=O)N1CCc2ncc(C#Cc3ccccc3)cc2C1 [Example 34, 2,2-Dimethyl-1-(3-(phenylethynyl)-7,8-dihydro-1,6-naphthyridin-6(5H)-yl)propan-1-one]
1.7-fold		2.5-fold	481 nM						O=S(=O)(C1CC1)N1CCc2ncc(C#Cc3ccccc3)cc2C1 [Example 38, 6-(Cyclopropylsulfonyl)-3-(phenylethynyl)-5,6,7,8-tetrahydro-1,6-naphthyridine]
							50.8 nM	20.8 nM	CN(C)C(=O)N1CCc2ncc(C#Cc3cccc(C#N)c3)cc2C1 [Example 46, 3-((3-Cyanophenyl)ethynyl)-N,N-dimethyl-7,8-dihydro-1,6-naphthyridine-6(5H)-carboxamide]
